Test results reported in patent US7834011B2, “Heterocyclylalkyl derivatives as novel inhibitors of histone deacetylase” (Janssen Pharmaceutica N.V., priority 2006, dated 2010).
≈ marks a conversion by molar mass, not a printed value.

Experiments:
[1] = biological target: histone deacetylase (HeLa nuclear extracts); assay: In vitro assay for inhibition of histone deacetylase with fluorescent-labelled substrate (Fluor de Lys); assay type: biochemical
Excerpt: The in vitro assay for inhibition of histone deacetylase (see example C.1) measures the inhibition of HDAC enzymatic activity obtained with the compounds of formula (I).
The HDAC Fluorescent Activity Assay/Drug Discovery Kit of Biomol (cat. No: AK-500-0001) was used. The HDAC Fluorescent Activity Assay is based on the Fluor de Lys (Fluorogenic Histone deAcetylase Lysyl) substrate and developer combination. The Fluor de Lys substrate, comprises an acetylated lysine side chain. Deacetylation of the substrate sensitizes the substrate so that, in the second step, treatment with the Fluor de Lys developer produces a fluorophore.
HeLa nuclear extracts (supplier: Biomol) were incubated at 60 μg/ml with 75 μM of substrate. The Fluor de Lys substrate was added in a buffer containing 25 mM Tris, 137 mM NaCl, 2.7 mM KCl and 1 mM MgCl2.6H2O at pH 7.4. After 30 min, 1 volume of the developer was added. The fluorophore was excited with 355 nm light and the emitted light (450 nm) was be detected on a fluorometric plate reader.
For each experiment, controls (containing HeLa nuclear extract and buffer), a blank incubation (containing buffer but no HeLa nuclear extract) and samples (containing compound dissolved in DMSO and further diluted in buffer and HeLa nuclear extract) were run in parallel. In first instance, compounds were tested at a concentration of 10^−5M. […] All sample were tested 4 times. In each test the blank value was subtracted from both the control and the sample values. The control sample represented 100% of substrate deactylation. For each sample the fluorescence was expressed as a percentage of the mean value of the controls. […] Herein the effects of test compounds are expressed as pIC50 (the negative log value of the IC50-value) (see Table F-2).

[2] = test system: A2780 ovarian carcinoma cells; assay: Antiproliferative activity on A2780 cells (MTT); assay type: cell-based; details: Homo sapiens, 96 h, four days of incubation, read-out: Cellular activity pIC50 C.2 (converted)
Experimental: Cellular activity of the compounds of formula (I) was determined on A2780 tumour cells using a colorimetric assay for cell toxicity or survival (Mosmann Tim, Journal of Immunological Methods 65: 55-63, 1983)(see example C.2).
All compounds tested were dissolved in DMSO and further dilutions were made in culture medium. Final DMSO concentrations never exceeded 0.1% (v/v) in cell proliferation assays. Controls contained A2780 cells and DMSO without compound and blanks contained DMSO but no cells. MTT was dissolved at 5 mg/ml in PBS. A glycine buffer comprised of 0.1 M glycine and 0.1 M NaCl buffered to pH 10.5 with NaOH (1 N) was prepared (all reagents were from Merck).
The human A2780 ovarian carcinoma cells (a kind gift from Dr. T. C. Hamilton [Fox Chase Cancer Centre, Pennsylvania, USA]) were cultured in RPMI 1640 medium supplemented with 2 mM L-glutamine, 50 μg/ml gentamicin and 10% fetal calf serum. Cells were routinely kept as monolayer cultures at 37° C. in a humidified 5% CO2 atmosphere. Cells were passaged once a week using a trypsin/EDTA solution at a split ratio of 1:40. All media and supplements were obtained from Life Technologies. Cells were free of mycoplasma contamination as determined using the Gen-Probe Mycoplasma Tissue Culture kit (supplier: BioMérieux).
Cells were seeded in NUNC™ 96-well culture plates (Supplier: Life Technologies) and allowed to adhere to the plastic overnight. Densities used for plating were 1500 cells per well in a total volume of 200 μl medium. After cell adhesion to the plates, medium was changed and drugs and/or solvents were added to a final volume of 200 μl. Following four days of incubation, medium was replaced by 200 μl fresh medium and cell density and viability was assessed using an MTT-based assay. To each well, 25 μl MTT solution was added and the cells were further incubated for 2 hours at 37° C. The medium was then carefully aspirated and the blue MTT-formazan product was solubilized by addition of 25 μl glycine buffer followed by 100 μl of DMSO. […] Within an experiment, the results for each experimental condition are the mean of 3 replicate wells. For initial screening purposes, compounds were tested at a single fixed concentration of 10^−6 M. For active compounds, the experiments were repeated to establish full concentration-response curves. For each experiment, controls (containing no drug) and a blank incubation (containing no cells or drugs) were run in parallel. The blank value was subtracted from all control and sample values. For each sample, the mean value for cell growth (in absorbance units) was expressed as a percentage of the mean value for cell growth of the control. […] Herein the effects of test compounds are expressed as pIC50 (the negative log value of the IC50-value)(see Table F-2).

[3] = Solubility at pH 2.3 (chemiluminescent nitrogen detector); assay type: physicochemical; details: pH 2.3, aqueous buffer; read-out: Solubility C.3.c. pH = 2.3
Excerpt: In a third method the solubility of a compound at different pH's can be measured with the use of a Chemiluminescent Nitrogen Detector (see example C.3.c).
The solubility of a compound, at pH 2.3, can also be measured with the use of a chemiluminescent nitrogen detector (see Table F-2).

melting point [°C]	Enzymatic activity pIC50 C.1 [1]	IC50 [2] [nM]	solubility [3] [µg/mL]	Compound
138	–	–	–	CCCn1nc(CN2CCN(c3ccc(C(=O)Nc4cc(-c5cccs5)ccc4N)cn3)CC2)c2ccccc21 [Compound 31]
–	8.2	39.8	–	Cn1cc(CNCC2CCN(c3ncc(C(=O)NO)cn3)CC2)c2cccnc21 [Compound 15]
168	8.3	200	2400 (≈ 5.65 mM)	CCN(Cc1ccc2c(c1)nnn2C)CC1CCN(c2ncc(C(=O)NO)cn2)CC1 [Compound 9]
–	8.4	50.1	4600 (≈ 10.2 mM)	CCN(Cc1ccc2c(c1)nnn2C(C)C)CC1CCN(c2ncc(C(=O)NO)cn2)CC1 [Compound 24]
260	7.8	1260	< 10	Cn1nnc2ccc(CN(CC3CCN(c4ncc(C(=O)NO)cn4)CC3)S(C)(=O)=O)cc21 [Compound 12]
–	8.0	1000	–	Cc1nc2ccc(CNCC3CCN(c4ncc(C(=O)NO)cn4)CC3)cc2[nH]1 [Compound 23]
–	7.5	100	–	Cn1nc(CNCC2CCN(c3ccc(C(=O)NO)cn3)CC2)c2ccccc21 [Compound 16]
–	7.2	794	400 (≈ 0.857 mM)	CC(=O)N(Cc1ccc2c(c1)nnn2C(C)C)CC1CCN(c2ncc(C(=O)NO)cn2)CC1 [Compound 29]
208	8.2	100	2500 (≈ 6.27 mM)	O=C(NO)c1cnc(N2CCC(CNCc3nc4ccccc4s3)CC2)nc1 [Compound 8]
199	7.6	251	< 10	CCC(=O)N(Cc1nn(C)c2ccccc12)CC1CCN(c2ncc(C(=O)NO)cn2)CC1 [Compound 13]
–	7.7	126	–	Cn1nnc2cc(CN(CC#N)CC3CCN(c4ncc(C(=O)NO)cn4)CC3)ccc21 [Compound 25]
–	7.5	158	–	Cn1nc(CN2CCN(c3ccc(C(=O)NO)cn3)CC2)c2ccccc21 [Compound 14]

The remaining lines, values behind:

Compound	melting point [°C]	Enzymatic activity pIC50 C.1 [1]	IC50 [2] [nM]	solubility [3] [µg/mL]
CC(=O)N(Cc1ccc2c(c1)nnn2C)CC1CCN(c2ncc(C(=O)NO)cn2)CC1 [Compound 26]	–	7.4	1580	–
Cn1nnc2cc(CNCC3CCN(c4ncc(C(=O)NO)cn4)CC3)ccc21 [Compound 20]	–	7.8	158	2500 (≈ 6.31 mM)
Cn1nc(CNCC2CN(c3ncc(C(=O)Nc4ccccc4N)cn3)CCO2)c2ccccc21 (stereo not shown) [Compound 5]	152	–	–	–
Cn1nc2ccccc2c1CNCC1CCN(c2ncc(C(=O)NO)cn2)CC1 [Compound 19]	–	8.1	1580	2500 (≈ 6.32 mM)
CCCn1nc(CN(CC2CCN(c3ncc(C(=O)NO)cn3)CC2)C(=O)CC)c2ccccc21 [Compound 28]	–	7.4	251	10 (≈ 0.0209 mM)
CCCn1nc(CNCC2CCN(c3ncc(C(=O)NO)cn3)CC2)c2ccccc21 [Compound 17]	–	9.0	31.6	3800 (≈ 8.97 mM)
Cn1nc(CNCC2CN(c3ncc(C(=O)NO)cn3)CCO2)c2ccccc21 (stereo not shown) [Compound 4]	193	7.8	200	–
CC(C)n1nnc2cc(CNCC3CCN(c4ncc(C(=O)NO)cn4)CC3)ccc21 [Compound 18]	–	7.6	158	–
Cn1nnc2cc(CN(CC3CCN(c4ncc(C(=O)NO)cn4)CC3)C(=O)NO)ccc21 [Compound 11]	130	8.5	794	–
CC(=O)N(Cc1nc2ccccc2n1C)CC1CCN(c2ncc(C(=O)NO)cn2)CC1 [Compound 21]	–	7.5	794	1900 (≈ 4.34 mM)
Cn1nnc2cc(COCC3CCN(c4ncc(C(=O)NO)cn4)CC3)ccc21 [Compound 7]	197	7.8	200	–
CCC(=O)N(Cc1ccc2nnn(C)c2c1)CC1CCN(c2ncc(C(=O)NO)cn2)CC1 [Compound 27]	–	6.9	2000	< 10
Cn1nc(CN2CCN(c3ccc(C(=O)Nc4ccccc4N)cn3)CC2)c2ccccc21 [Compound 6]	219	–	–	–
CCN(Cc1ccc2nnn(C)c2c1)CC1CCN(c2ncc(C(=O)NO)cn2)CC1 [Compound 10]	110	8.7	50.1	2700 (≈ 6.36 mM)
